Assay results taken from patent US20050215635A1, “Diarylheptanoid compounds and uses thereof” (priority 2004, published 2005).

Tests used:
[1] = tested on: p44/42 MAPK phosphorylation; test: Western blotting of LPS induced phosphorylation of p44/42 MAPK in RAW 264.7 cells; assay type: cell-based, mouse; conditions: HMP 25 μM + LPS (0.5 μg/ml), RAW 264.7, 30 min (not at 60 min)
Protocol: FIG. 5A and 5B. Effect of HMP on LPS induced MAPKs activation. FIG. 5A, Total protein lysates of RAW 264.7 were prepared after treatment with HMP and/or LPS for indicated times and 40 μg of protein lysates were resolved and probed for phosphorylated (pp44/42 and pp38) and basal p44/42 and p38, using specific monoclonal antibodies as described in material and methods. FIG. 5B, Integrated density of phosphorylated p44/42 (pp44/42) as measured by Scion software. This experiment was repeated 4 times with similar results.
(§1) At indicated time points, cells were rapidly washed with ice-cold PBS and solubilized in cold lysis buffer containing 10 mM Tris-base, 5 mM EDTA, 50 mM NaCl, 1% Triton X-100, 5 mM phenylmethylsulfonyl fluoride (PMSF), 2 mM sodium orthovanadate, 10 μg/ml leupeptin, 25 μg/ml aprotinin, 1 mM sodium pyrophosphate, and 20% glycerol. […]
(§2) Equal amount of protein (40 μg) from each sample was loaded on SDS-polyacrylamide electrophoresis gel (8 and 10% separating gels for iNOS and p42/44^MAPK, respectively) and resolved for 1.5 h at 120 V in buffer containing 95 mM Tris-HCl, 960 mM glycine, and 0.5% SDS. […] Specific bands were detected by enhanced chemiluminescence's detection system (Amersham-Pharmacia biotech, NJ, USA) and the membrane was exposed to X-ray film. […]

[2] = tested on: Mouse macrophage cell line RAW 264.7; test: MTT assay, RAW 264.7 cell viability; assay type: cell-based; conditions: HMP 6.25 μM-25 μM, 48 hrs
Protocol: MTT is a pale yellow substrate that is reduced by living cells to yield a dark blue formazan product. […] Mouse macrophage cell line RAW 264.7 were cultured in 96 well flat bottom plate at concentration of 0.25 million/ml and after 12 hrs of preconditioning, various concentrations of diarylheptanoid (HMP) was added and further cultured for 48 hrs. Thereafter, culture medium was aspirated and 100 μl of MTT dye (1 mg/ml in PBS) was added and further incubated for 4 hrs at 37° C. The formazan crystals made due to dye reduction by viable cells were dissolved using acidified isopropanol (0.1 N HCl). Index of cell viability was calculated by measuring the optical density of color produced by MTT dye reduction at 570 nm.

[3] = Radical-scavenging activity by DPPH
Excerpt: In this example, the 2,2-diphenyl-1-picrylhydrazyl (DPPH) method was used to explore the capacity of five isolated compounds of the invention to act as free radical scavengers. The DPPH assay has been extensively used to test the free radical scavenging ability of various chemicals (Brand-williams, W. et al., Wiss. Technol. 1995, 28, 25-30; Dinis, T. C. et al., Arch. Biochem. Biophys. 1994, 315, 161-169.)
This method was adapted from that of Brand-Williams, et al. (Brand-williams, W.; Cuvelier, M. E.; Berset, C. Lebensm. Wiss. Technol. 1995, 28, 25-30.). At least seven different concentrations were prepared for each purified compound. 25 μl pure compound solution and 975 μL DPPH solution (63.4 μM) were mixed together and left in the dark for 30 min. Each sample was triplicated and the values were averaged. The absorbance of the samples was measured at 515 nm against methanol solution without DPPH as the blank reference. The absorbance was measured every 30 min until the reaction reached a plateau. The reaction kinetics were then plotted using the above data and the percentage of DPPH remaining at the steady state was obtained. IC50 values were determined by extrapolation from linear regression analysis.
DPPH, 2,2-Diphenyl-1-picrylhydrazyl (DPPH.), is a stable radical in methanol solution. In its radical form, DPPH. absorbs at 515 nm, but the absorption ceases upon reduction by an antioxidant (AH) or a radical species (R.) (Brand-williams, W.; Cuvelier, M. E.; Berset, C. Lebensm. Wiss. Technol. 1995, 28, 25-30.). The concentration of tested chemicals needed to decrease the initial DPPH. concentration by 50% (IC50) is a parameter widely used to measure the antioxidant potential (Kanner, J.; Frankel, E.; German, B.; Kinsella, J. e. J. Agric. Food Chem. 1994, 42, 64-69, Vinson, J. A.; Dabbagh, Y. A.; Serry, M. M. J. Agric. Food Chem. 1995a, 43,2800-2802.). The lower the IC50, the higher the free radical scavenging power.

iNOS protein expression = test: Western blotting of iNOS protein expression in RAW 264.7 cells; assay type: cell-based, mouse; conditions: HMP 12.5 and 25 μM + LPS (0.5 μg/ml), RAW 264.7, 18 hrs
Protocol: FIG. 3. Inhibition of LPS induced iNOS and COX-2 protein expression by HMP. RAW 264.7 cells were treated with various concentrations of HMP and/or LPS (0.5 μg/ml) for 18 h. Total-cell lysate (40 μg) was resolved in 8-10% SDS-PAGE then transferred to PVDF membrane and detected with specific antibodies as described in Section 6. This experiment was repeated 4 times with similar observations. Lane-1, Control (without any treatment); 2, LPS (0.5 μg/ml); 3, LPS and HMP 25 μM; 4, LPS and HMP-12.5 μM.
as §1, §2

For `COc1cc(CC/C=C/C(=O)CCc2ccccc2)ccc1O` [AO-4, 7-(4″-hydroxy-3″-methoxyphenyl)-1-phenyl-hept-4-en-3-one], the “LPS-induced phosphorylation of p44/42 MAPK (in words)” value [1] was “markedly inhibited”, the “cytotoxic effect on RAW 264.7 cells (cell viability, MTT)” value [2] was “almost no cytotoxic effect” and the IC50 ([3]; DPPH 63.4 μM in methanol, absorbance at 515 nm, steady state, read-out: IC50 (μM) of Diarylheptanoids in Scavenging DPPH Free Radicals) was 13.7 µM. The “free radical scavenging, DPPH data (in words)” value ([3]; DPPH assay) was “very good free radical scavengers” and the “LPS induced iNOS protein expression (Western blot, in words)” value (iNOS protein expression) was “markedly inhibited”.
